Where two headings read alike, the source gives them in different places.

The results in this text go back to patent US4151280A, “Pyrroloquinoxalines” (Roussel Uclaf, priority 1977, dated 1979).

For this assay, the system named is passive cutaneous anaphylaxis. The assay can be described thus: Passive cutaneous anaphylaxis (PCA) in rats.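 As to all read-outs here: male rats, challenged with antigen plus Evans blue three days post sensitization, killed 30 min later, dorsal skin bluing graded on a five point scale, summed over four sites.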 The format is in vivo. As to conditions: dosed immediately prior to intravenous challenge, rats sensitized intradermally with anti-ovalbumen antiserum; for ED50: Rattus norvegicus.
Setting [1] is: read-out: ED 50 i.v. (dose of drug giving 50% inhibition), i.v.
Setting [2] is: po, read-out: ED 50 p.o. (dose of drug giving 50% inhibition), p.o.

Method: Cutaneous anaphylaxis can be induced in rats by intradermal (ID) sensitization with antiserum followed three days later by systemic challenge with antigen. Evans blue dye injected with the antigen is used as a marker to assess the severity of the local response. […] Brown: Pergamon Press: --male rats weighing 180-220 grams are used in groups of seven.
Preparation of Antigen for Sensitization (Alum precipitated ovalbumen)
Wash 120 grams of Al(OH)3 in 140 ml of saline (use of a macerater facilitates mixing).
Centrifuge at 3,000 r.p.m. for about 10 minutes.
Resuspend the precipiate with 300 ml of albumen egg powder (1.3 mg/ml) in saline and allow to stand for 30 minutes.
Centrifuge at 3,000 r.p.m. for 10 minutes.
Weigh the wet precipitate and to each gram weight add 1 ml of saline. Store in refrigerator (Quantity sufficient for 60 rats for a 3 day sensitization program).
Preparation of Antiserum (anti-ovalbumen)
1 ml of the alum precipitated ovalbumen was injected subcutaneously into rats weighing 180-200 grams on days 0,2,4. The rats were bled on day 14 either by cardiac puncture or via the dorsal abdominal aorta. Equal quantities of serum from each animal were pooled and thoroughly mixed and 2 ml aliquots were stored at -20° C. in plastic tubes.
The animals were then left for a period of three days to develop sensitization.
The injections were speeded up by using an automatic 1 ml self-filling glass syringe. The "challenged" rats were killed after 30 minutes, usually pithed) and their skin on the dorsal surface was removed. The degree and area of blueing, proportional to the anaphylactic reaction was assessed on a five point scoring system.
Total scores for sites 1,2,3 and 4=X
2. mean value of X for each group=X

For “5-n-butyl-7-(and 8)-nitro-4,5-dihydro-4-oxo-pyrrolo[1,2-a]quinoxaline-2-carboxylic acid [23(c)]”, where the note is “i.v.”, the “ED 50 i.v. (dose of drug giving 50% inhibition)” value is given as 0.025 mg/kg. Besides, the “ED 50 p.o. (dose of drug giving 50% inhibition)” value (p.o.) is listed as 0.26 mg/kg. `CC(C)n1c(=O)c2cc(C(=O)O)cn2c2ccccc21` [Example 18, 5-isopropyl-4,5-dihydro-4-oxo-pyrrolo[1,2-a]quinoxaline-2-carboxylic acid]: the ED50 under setting [1] turned out to be 0.85 mg/kg. Consider `CCCCn1c(=O)c2cc(C(=O)OCC)cn2c2ccccc21` [Example 5, ethyl 5-n-butyl-4,5-dihydro-4-oxo-pyrrolo[1,2-a]quinoxaline-2-carboxylate], for which the ED50 under setting [2] was 4.1 mg/kg. Turning to `C=CCn1c(=O)c2cc(C(=O)O)cn2c2ccccc21` [Example 19, 5-allyl-4,5-dihydro-4-oxo-pyrrolo[1,2-a]quinoxaline-2-carboxylic acid], the ED50 reads like this: under setting [2], 0.28 mg/kg; under setting [1], 0.035 mg/kg.

In the case of `O=C(O)c1cc2c(=O)n(-c3ccccc3)c3ccccc3n2c1` [Example 13, 5-phenyl-4,5-dihydro-4-oxo-pyrrolo[1,2-a]quinoxaline-2-carboxylic acid], the ED50 under setting [2] was determined as 19 mg/kg and the ED50 under setting [1] worked out at 1.57 mg/kg. The like results for `CCCCn1c(=O)c2cc(C(=O)O)cn2c2cc(Cl)c(Cl)cc21` [Example 22, 5-n-butyl-7,8-dichloro-4,5-dihydro-4-oxo-pyrrolo[1,2-a]quinoxaline-2-carboxylic acid] were, in that order, 0.117 mg/kg and 0.014 mg/kg.

Turning to `CCCCn1c(=O)c2cc(C(=O)O)cn2c2cc(Cl)ccc21` [Example 21, 5-n-butyl-8-chloro-4,5-dihydro-4-oxo-pyrrolo[1,2-a]quinoxaline-2-carboxylic acid], the ED50 under setting [2] is 0.114 mg/kg and the ED50 under setting [1] was 0.019 mg/kg. For `CCCCCn1c(=O)c2cc(C(=O)O)cn2c2ccccc21` [Example 17, 5-n-pentyl-4,5-dihydro-4-oxo-pyrrolo[1,2-a]quinoxaline-2-carboxylic acid], in that order: 0.31 mg/kg and 0.087 mg/kg.

For `CCOC(=O)c1cc2c(=O)n(C)c3ccccc3n2c1` [Example 1, ethyl 5-methyl-4,5-dihydro-4-oxo-pyrrolo[1,2-a]quinoxaline-2-carboxylate], under setting [2], the ED50 stood at 7 mg/kg. In the case of `CCn1c(=O)c2cc(C(=O)O)cn2c2cc(Cl)ccc21` [24(d), 8-chloro-5-ethyl-4,5-dihydro-4-oxo-pyrrolo[1,2-a]quinoxaline-2-carboxylic acid], the ED50 was found to be 0.29 mg/kg under setting [2] and 0.035 mg/kg under setting [1]. Turning to `CCn1c(=O)c2cc(C(=O)O)cn2c2ccccc21` [Example 14, 5-ethyl-4,5-dihydro-4-oxo-pyrrolo[1,2-a]quinoxaline-2-carboxylic acid], the ED50 runs as follows: under setting [2], 0.035 mg/kg; under setting [1], 0.026 mg/kg. As to `O=C(O)c1cc2c(=O)n(C3CCCC3)c3ccccc3n2c1` [Example 20, 5-cyclopentyl-4,5-dihydro-4-oxo-pyrrolo[1,2-a]quinoxaline-2-carboxylic acid], under setting [1], the ED50 came to 0.37 mg/kg. Turning to `CCCn1c(=O)c2cc(C(=O)O)cn2c2ccccc21` [Example 15, 5-n-propyl-4,5-dihydro-4-oxo-pyrrolo[1,2-a]quinoxaline-2-carboxylic acid], the ED50 reads like this: under setting [2], 0.032 mg/kg; under setting [1], 0.019 mg/kg.

As for `CCCCn1c(=O)c2cc(C(=O)O)cn2c2ccccc21` [Example 16, 5-n-butyl-4,5-dihydro-4-oxo-pyrrolo[1,2-a]quinoxaline-2-carboxylic acid], the ED50 reads like this: under setting [2], 0.058 mg/kg; under setting [1], 0.019 mg/kg. Regarding `Cn1c(=O)c2cc(C(=O)O)cn2c2ccccc21` [Example 12, 5-methyl-4,5-dihydro-4-oxo-pyrrolo[1,2-a]quinoxaline-2-carboxylic acid], the ED50 came to 0.54 mg/kg under setting [2] and 0.089 mg/kg under setting [1].
